11 compounds from US10253002B2, “Compounds and methods of treating infections” (Neoculi Pty Ltd., priority 2013, dated 2019) can be followed below.

Holding throughout (experiment): Broth microdilution MIC, Example 7 (NCL812 and analogues)
One assay relates to VRE. It counts as cell-based, Enterococcus spp. Particulars: 24 hours, duplicate lines per compound. Put shortly:
(§1)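 Isolates were tested in duplicate, with a third run if replicates differed by more than one two-fold dilution; inoculum purity was checked on sheep blood agar.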

The test system of another assay is Escherichia coli. It counts as cell-based. Particulars: E. coli; 24 hours; duplicate lines per compound.
The next assay relates to MRSA. It counts as cell-based, Staphylococcus aureus. Particulars: 24 hours, duplicate lines per compound. Put shortly: as §1
The subject of another assay is Pseudomonas aeruginosa. It is filed as cell-based. Particulars: P. aeruginosa; 24 hours; duplicate lines per compound.

Several values for one entry are separate records, joined by “and”; a condition that tells them apart may be missing. Equal values may be shown once.

For the compound `Cl.N=C(NN=Cc1ccccc1-c1ccccc1)NN=Cc1ccccc1-c1ccccc1` [NCL 116], in the assay on VRE, the “MIC (μg/ml) at 24 hours, VRE 1” value is >128 µg/mL and the “MIC (μg/ml) at 24 hours, VRE 2” value was >128 µg/mL. Also, the “MIC (μg/ml) at 24 hours, E. coli” value in the assay with Escherichia coli was >128 µg/mL. Further, in the assay on MRSA, the “MIC (μg/ml) at 24 hours, MRSA 1” value is >128 µg/mL and the “MIC (μg/ml) at 24 hours, MRSA 2” value was >128 µg/mL. In addition, in the assay with Pseudomonas aeruginosa, the “MIC (μg/ml) at 24 hours, P. aeruginosa” value is >128 µg/mL.
Turning to `COc1cc(/C=N/NC(=N)N/N=C/c2ccc(O)c(OC)c2)ccc1O.Cl` [NCL 117], in the assay on VRE, the “MIC (μg/ml) at 24 hours, VRE 1” value was 64 µg/mL and the “MIC (μg/ml) at 24 hours, VRE 2” value amounted to 64 µg/mL. Besides, in the assay on Escherichia coli, the “MIC (μg/ml) at 24 hours, E. coli” value was >128 µg/mL. Moreover, in the assay with MRSA, the “MIC (μg/ml) at 24 hours, MRSA 1” value worked out at 64 µg/mL and the “MIC (μg/ml) at 24 hours, MRSA 2” value amounted to 128 µg/mL. Moreover, in the assay on Pseudomonas aeruginosa, the “MIC (μg/ml) at 24 hours, P. aeruginosa” value is >128 µg/mL.
Take `Cl.N=C(N/N=C/c1cc(F)ccc1F)N/N=C/c1cc(F)ccc1F` [NCL 118]: in the assay on VRE, the “MIC (μg/ml) at 24 hours, VRE 1” value was >128 µg/mL and the “MIC (μg/ml) at 24 hours, VRE 2” value is >128 µg/mL. For the same compound, the “MIC (μg/ml) at 24 hours, E. coli” value against Escherichia coli is >128 µg/mL. Moreover, in the assay on MRSA, the “MIC (μg/ml) at 24 hours, MRSA 1” value is >128 µg/mL and the “MIC (μg/ml) at 24 hours, MRSA 2” value is >128 µg/mL. The “MIC (μg/ml) at 24 hours, P. aeruginosa” value against Pseudomonas aeruginosa was >128 µg/mL.
For `CC(=O)Nc1ccc(C=NNC(=N)NN=Cc2ccc(NC(C)=O)cc2)cc1.Cl` [NCL 119], in the assay on VRE, the “MIC (μg/ml) at 24 hours, VRE 1” value was >128 µg/mL and the “MIC (μg/ml) at 24 hours, VRE 2” value is >128 µg/mL. The “MIC (μg/ml) at 24 hours, E. coli” value in the assay with Escherichia coli is >128 µg/mL. In the assay with MRSA, the “MIC (μg/ml) at 24 hours, MRSA 1” value is >128 µg/mL and the “MIC (μg/ml) at 24 hours, MRSA 2” value was >128 µg/mL. Further, the “MIC (μg/ml) at 24 hours, P. aeruginosa” value in the assay with Pseudomonas aeruginosa is >128 µg/mL.
For the compound `CC(C)c1ccc(/C=N/NC(=N)N/N=C/c2ccc(C(C)C)cc2)cc1.Cl` [NCL 120], in the assay with VRE, the “MIC (μg/ml) at 24 hours, VRE 1” value was found to be 2 µg/mL and the “MIC (μg/ml) at 24 hours, VRE 2” value came to 8 µg/mL. Moreover, the “MIC (μg/ml) at 24 hours, E. coli” value with Escherichia coli was >128 µg/mL. In the assay on MRSA, the “MIC (μg/ml) at 24 hours, MRSA 1” value came out at 8 µg/mL; the “MIC (μg/ml) at 24 hours, MRSA 2” value was 4 µg/mL and 8 µg/mL. The “MIC (μg/ml) at 24 hours, P. aeruginosa” value against Pseudomonas aeruginosa is >128 µg/mL.
`CCCc1ccc(C=NNC(=N)NN=Cc2ccc(CCC)cc2)cc1.Cl` [NCL 121]: in the assay with VRE, the “MIC (μg/ml) at 24 hours, VRE 1” value amounted to 8 µg/mL; the “MIC (μg/ml) at 24 hours, VRE 2” value was 32 µg/mL and 64 µg/mL. The “MIC (μg/ml) at 24 hours, E. coli” value with Escherichia coli was >128 µg/mL. In the assay with MRSA, the “MIC (μg/ml) at 24 hours, MRSA 1” value was 32 µg/mL and the “MIC (μg/ml) at 24 hours, MRSA 2” value came out at 32 µg/mL. Further, the “MIC (μg/ml) at 24 hours, P. aeruginosa” value in the assay on Pseudomonas aeruginosa was >128 µg/mL.
With `Cl.N=C(NN=Cc1ccc(O)c([N+](=O)[O-])c1)NN=Cc1ccc(O)c([N+](=O)[O-])c1` [NCL 122], in the assay on VRE, the “MIC (μg/ml) at 24 hours, VRE 1” value was >128 µg/mL and the “MIC (μg/ml) at 24 hours, VRE 2” value was >128 µg/mL. Further, the “MIC (μg/ml) at 24 hours, E. coli” value against Escherichia coli is >128 µg/mL. Further, in the assay on MRSA, the “MIC (μg/ml) at 24 hours, MRSA 1” value was >128 µg/mL and the “MIC (μg/ml) at 24 hours, MRSA 2” value was >128 µg/mL. Moreover, in the assay on Pseudomonas aeruginosa, the “MIC (μg/ml) at 24 hours, P. aeruginosa” value was >128 µg/mL.
Consider `Cl.N=C(NN=Cc1ccc(F)c(F)c1)NN=Cc1ccc(F)c(F)c1` [NCL 123], for which, in the assay on VRE, the “MIC (μg/ml) at 24 hours, VRE 1” value was 4 µg/mL and the “MIC (μg/ml) at 24 hours, VRE 2” value was determined as 4 µg/mL. Further, the “MIC (μg/ml) at 24 hours, E. coli” value in the assay with Escherichia coli is >128 µg/mL. Besides, in the assay with MRSA, the “MIC (μg/ml) at 24 hours, MRSA 1” value was 16 µg/mL and 32 µg/mL; the “MIC (μg/ml) at 24 hours, MRSA 2” value was 4 µg/mL and 8 µg/mL. In the assay on Pseudomonas aeruginosa, the “MIC (μg/ml) at 24 hours, P. aeruginosa” value is >128 µg/mL.
Consider `Cl.N=C(NN=Cc1c(O)ccc2ccccc12)NN=Cc1c(O)ccc2ccccc12` [NCL 124], for which, in the assay with VRE, the “MIC (μg/ml) at 24 hours, VRE 1” value is >128 µg/mL and the “MIC (μg/ml) at 24 hours, VRE 2” value was >128 µg/mL. Also, the “MIC (μg/ml) at 24 hours, E. coli” value in the assay on Escherichia coli was >128 µg/mL. In the assay on MRSA, the “MIC (μg/ml) at 24 hours, MRSA 1” value was >128 µg/mL and the “MIC (μg/ml) at 24 hours, MRSA 2” value is >128 µg/mL. Moreover, the “MIC (μg/ml) at 24 hours, P. aeruginosa” value against Pseudomonas aeruginosa was >128 µg/mL.
For `COc1ccc(C=NNC(=N)NN=Cc2ccc(OC)c(O)c2)cc1O.Cl` [NCL 125], in the assay on VRE, the “MIC (μg/ml) at 24 hours, VRE 1” value was >128 µg/mL and the “MIC (μg/ml) at 24 hours, VRE 2” value is >128 µg/mL. For the same compound, the “MIC (μg/ml) at 24 hours, E. coli” value against Escherichia coli was >128 µg/mL. In the assay on MRSA, the “MIC (μg/ml) at 24 hours, MRSA 1” value is >128 µg/mL and the “MIC (μg/ml) at 24 hours, MRSA 2” value is >128 µg/mL. Also, the “MIC (μg/ml) at 24 hours, P. aeruginosa” value in the assay on Pseudomonas aeruginosa is >128 µg/mL.
Consider `C#Cc1cccc(C=NNC(=N)NN=Cc2cccc(C#C)c2)c1.Cl` [NCL 126], for which, in the assay on VRE, the “MIC (μg/ml) at 24 hours, VRE 1” value was 4 µg/mL and 8 µg/mL; the “MIC (μg/ml) at 24 hours, VRE 2” value was >128 µg/mL. In the assay with Escherichia coli, the “MIC (μg/ml) at 24 hours, E. coli” value was >128 µg/mL. Moreover, in the assay with MRSA, the “MIC (μg/ml) at 24 hours, MRSA 1” value was >128 µg/mL and the “MIC (μg/ml) at 24 hours, MRSA 2” value was >128 µg/mL. Moreover, in the assay with Pseudomonas aeruginosa, the “MIC (μg/ml) at 24 hours, P. aeruginosa” value is >128 µg/mL.
